{"source": "patent US9492471B2", "about": "“Methods of treating a disease or disorder associated with Bruton'S Tyrosine Kinase” (Celgene Avilomics Research, Inc., priority 2013, dated 2016)", "experiment_in_all_cases": "HotSpot kinase profiling", "format_in_all_cases": "biochemical", "key": {"[1]": {"molecular_target": "T1, CAMK4 (Homo sapiens, UniProt Q16566)", "T1 construct": "purchased Reaction Biology Corp", "T1 sequence (Q16566 1-473)": "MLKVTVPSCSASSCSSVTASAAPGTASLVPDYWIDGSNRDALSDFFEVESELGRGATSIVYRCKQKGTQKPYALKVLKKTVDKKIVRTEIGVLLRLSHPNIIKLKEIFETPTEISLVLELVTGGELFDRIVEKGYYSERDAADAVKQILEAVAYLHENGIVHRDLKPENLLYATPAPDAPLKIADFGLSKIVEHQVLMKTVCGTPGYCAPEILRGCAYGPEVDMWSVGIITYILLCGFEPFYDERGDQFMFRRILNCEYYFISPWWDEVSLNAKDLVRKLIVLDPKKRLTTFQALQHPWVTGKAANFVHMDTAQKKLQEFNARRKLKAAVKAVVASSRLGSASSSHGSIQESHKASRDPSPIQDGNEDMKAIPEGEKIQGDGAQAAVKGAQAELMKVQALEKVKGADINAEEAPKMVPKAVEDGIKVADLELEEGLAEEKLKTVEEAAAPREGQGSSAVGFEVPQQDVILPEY", "procedure,_shortened": "(§1)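 Activity is measured by radiolabel transfer captured on P81 filters after a 2 h room-temperature reaction of kinase, substrate and cofactors. Values are percent inhibition against DMSO.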"}, "[2]": {"molecular_target": "T2, CDK7/cyclin H (Homo sapiens, UniProt P50613)", "T2 construct": "purchased Reaction Biology Corp", "T2 sequence (P50613 whole entry)": "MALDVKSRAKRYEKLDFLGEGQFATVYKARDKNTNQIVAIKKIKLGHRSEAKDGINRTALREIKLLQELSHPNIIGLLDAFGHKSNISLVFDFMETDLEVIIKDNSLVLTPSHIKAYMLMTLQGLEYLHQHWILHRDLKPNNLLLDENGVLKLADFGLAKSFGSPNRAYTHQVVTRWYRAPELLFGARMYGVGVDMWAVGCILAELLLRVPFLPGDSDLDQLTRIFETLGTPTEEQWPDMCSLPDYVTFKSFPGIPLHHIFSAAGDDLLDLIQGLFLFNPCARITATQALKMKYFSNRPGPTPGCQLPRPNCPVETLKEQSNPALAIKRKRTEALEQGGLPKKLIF", "T2 sequence (P51946 whole entry partner)": "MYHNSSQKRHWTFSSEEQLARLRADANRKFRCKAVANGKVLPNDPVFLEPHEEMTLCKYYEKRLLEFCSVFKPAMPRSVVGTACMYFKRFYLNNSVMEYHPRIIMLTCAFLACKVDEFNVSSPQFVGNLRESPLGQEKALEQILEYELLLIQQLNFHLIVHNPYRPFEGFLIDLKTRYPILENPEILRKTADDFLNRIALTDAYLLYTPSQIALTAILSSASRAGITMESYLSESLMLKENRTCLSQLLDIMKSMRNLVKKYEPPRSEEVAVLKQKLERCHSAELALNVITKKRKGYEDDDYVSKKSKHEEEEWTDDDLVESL", "T2 sequence (P51948 whole entry partner)": "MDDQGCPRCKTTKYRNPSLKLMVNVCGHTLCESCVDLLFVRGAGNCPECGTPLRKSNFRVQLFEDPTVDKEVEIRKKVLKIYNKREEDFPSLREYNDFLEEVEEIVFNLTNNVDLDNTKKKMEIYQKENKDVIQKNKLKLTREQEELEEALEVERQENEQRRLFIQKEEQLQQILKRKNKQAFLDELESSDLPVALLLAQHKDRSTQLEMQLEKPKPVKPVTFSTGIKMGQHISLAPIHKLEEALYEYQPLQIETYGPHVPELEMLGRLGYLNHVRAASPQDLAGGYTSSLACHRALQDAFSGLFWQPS", "procedure,_shortened": "as §1"}, "[3]": {"molecular_target": "T3, CK1g3 (Homo sapiens, UniProt Q9Y6M4)", "T3 construct": "purchased Reaction Biology Corp", "T3 sequence (Q9Y6M4 whole entry)": "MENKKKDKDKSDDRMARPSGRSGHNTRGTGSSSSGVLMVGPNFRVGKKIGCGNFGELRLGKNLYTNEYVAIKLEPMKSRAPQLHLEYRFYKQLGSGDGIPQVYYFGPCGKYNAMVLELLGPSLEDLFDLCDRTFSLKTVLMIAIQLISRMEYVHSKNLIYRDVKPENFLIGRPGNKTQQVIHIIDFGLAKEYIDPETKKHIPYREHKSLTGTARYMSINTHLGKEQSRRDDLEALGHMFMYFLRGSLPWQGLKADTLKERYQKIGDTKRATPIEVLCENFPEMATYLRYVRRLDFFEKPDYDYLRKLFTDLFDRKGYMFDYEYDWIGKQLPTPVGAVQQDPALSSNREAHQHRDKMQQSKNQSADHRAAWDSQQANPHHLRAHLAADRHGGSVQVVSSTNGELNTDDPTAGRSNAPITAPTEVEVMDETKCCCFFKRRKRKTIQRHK", "procedure,_shortened": "as §1"}, "[4]": {"molecular_target": "T4, EPHA7 (Homo sapiens, UniProt Q15375)", "T4 construct": "purchased Reaction Biology Corp", "T4 sequence (Q15375 28-998)": "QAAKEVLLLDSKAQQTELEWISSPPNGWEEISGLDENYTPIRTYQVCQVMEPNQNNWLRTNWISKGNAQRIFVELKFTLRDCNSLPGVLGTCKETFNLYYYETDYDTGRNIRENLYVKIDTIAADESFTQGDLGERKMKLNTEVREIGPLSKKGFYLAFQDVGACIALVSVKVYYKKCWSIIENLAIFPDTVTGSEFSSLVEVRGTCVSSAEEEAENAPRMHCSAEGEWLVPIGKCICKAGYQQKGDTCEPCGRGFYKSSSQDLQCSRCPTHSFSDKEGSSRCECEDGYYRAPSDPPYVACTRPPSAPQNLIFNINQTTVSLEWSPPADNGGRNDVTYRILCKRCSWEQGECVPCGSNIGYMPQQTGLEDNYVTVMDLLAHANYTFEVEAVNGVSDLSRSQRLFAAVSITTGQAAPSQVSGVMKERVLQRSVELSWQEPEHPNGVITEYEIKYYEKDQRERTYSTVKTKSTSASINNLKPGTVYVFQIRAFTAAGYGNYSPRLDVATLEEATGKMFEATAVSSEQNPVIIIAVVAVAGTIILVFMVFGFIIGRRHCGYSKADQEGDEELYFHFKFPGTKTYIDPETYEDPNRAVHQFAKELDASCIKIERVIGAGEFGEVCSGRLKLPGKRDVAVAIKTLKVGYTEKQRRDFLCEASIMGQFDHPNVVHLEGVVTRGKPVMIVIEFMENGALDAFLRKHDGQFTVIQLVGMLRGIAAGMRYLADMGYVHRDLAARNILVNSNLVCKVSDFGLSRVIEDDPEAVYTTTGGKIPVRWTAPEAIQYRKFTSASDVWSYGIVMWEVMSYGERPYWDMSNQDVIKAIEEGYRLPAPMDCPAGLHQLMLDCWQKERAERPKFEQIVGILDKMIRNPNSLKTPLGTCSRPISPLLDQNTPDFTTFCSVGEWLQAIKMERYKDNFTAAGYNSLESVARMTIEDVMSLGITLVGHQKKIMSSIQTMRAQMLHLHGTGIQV", "procedure,_shortened": "as §1"}, "[5]": {"molecular_target": "T5, JNK3 (Homo sapiens, UniProt P53779)", "T5 construct": "purchased Reaction Biology Corp", "T5 sequence (P53779 whole entry)": "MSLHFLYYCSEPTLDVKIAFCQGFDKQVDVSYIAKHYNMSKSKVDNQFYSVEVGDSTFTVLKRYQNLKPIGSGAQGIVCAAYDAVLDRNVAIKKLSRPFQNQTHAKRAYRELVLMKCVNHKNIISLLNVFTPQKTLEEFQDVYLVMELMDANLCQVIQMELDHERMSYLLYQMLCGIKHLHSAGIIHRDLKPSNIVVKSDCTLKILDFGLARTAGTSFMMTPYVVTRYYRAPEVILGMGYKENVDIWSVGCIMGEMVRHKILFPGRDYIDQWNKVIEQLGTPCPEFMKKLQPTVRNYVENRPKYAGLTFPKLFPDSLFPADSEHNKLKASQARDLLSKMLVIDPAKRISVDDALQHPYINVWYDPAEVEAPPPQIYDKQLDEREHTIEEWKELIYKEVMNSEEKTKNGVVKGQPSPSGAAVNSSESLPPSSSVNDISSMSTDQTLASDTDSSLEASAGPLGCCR", "procedure,_shortened": "as §1"}, "[6]": {"molecular_target": "T6, MEKK2 (Homo sapiens, UniProt Q9Y2U5)", "T6 construct": "purchased Reaction Biology Corp", "T6 sequence (Q9Y2U5 1-619)": "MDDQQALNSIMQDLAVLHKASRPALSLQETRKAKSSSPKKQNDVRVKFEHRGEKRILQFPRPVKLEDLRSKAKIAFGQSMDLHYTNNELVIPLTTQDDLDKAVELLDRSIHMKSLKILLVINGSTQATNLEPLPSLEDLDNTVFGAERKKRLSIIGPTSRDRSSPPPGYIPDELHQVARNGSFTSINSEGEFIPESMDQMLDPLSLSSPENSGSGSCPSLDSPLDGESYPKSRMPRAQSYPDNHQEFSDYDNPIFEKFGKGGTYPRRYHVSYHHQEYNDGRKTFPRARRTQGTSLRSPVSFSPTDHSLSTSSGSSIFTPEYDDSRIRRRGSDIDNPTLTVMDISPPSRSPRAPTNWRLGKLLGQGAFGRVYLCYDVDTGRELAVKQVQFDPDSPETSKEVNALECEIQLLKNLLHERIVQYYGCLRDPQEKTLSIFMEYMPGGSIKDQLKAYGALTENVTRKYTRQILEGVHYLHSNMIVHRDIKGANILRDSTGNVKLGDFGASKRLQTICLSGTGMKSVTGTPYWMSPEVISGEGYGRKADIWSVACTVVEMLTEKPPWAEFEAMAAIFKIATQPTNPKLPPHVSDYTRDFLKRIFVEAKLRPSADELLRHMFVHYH", "procedure,_shortened": "as §1"}, "[7]": {"molecular_target": "T7, P70S6K/RPS6KB1 (Homo sapiens, UniProt P23443)", "T7 construct": "purchased Reaction Biology Corp", "T7 sequence (P23443 whole entry)": "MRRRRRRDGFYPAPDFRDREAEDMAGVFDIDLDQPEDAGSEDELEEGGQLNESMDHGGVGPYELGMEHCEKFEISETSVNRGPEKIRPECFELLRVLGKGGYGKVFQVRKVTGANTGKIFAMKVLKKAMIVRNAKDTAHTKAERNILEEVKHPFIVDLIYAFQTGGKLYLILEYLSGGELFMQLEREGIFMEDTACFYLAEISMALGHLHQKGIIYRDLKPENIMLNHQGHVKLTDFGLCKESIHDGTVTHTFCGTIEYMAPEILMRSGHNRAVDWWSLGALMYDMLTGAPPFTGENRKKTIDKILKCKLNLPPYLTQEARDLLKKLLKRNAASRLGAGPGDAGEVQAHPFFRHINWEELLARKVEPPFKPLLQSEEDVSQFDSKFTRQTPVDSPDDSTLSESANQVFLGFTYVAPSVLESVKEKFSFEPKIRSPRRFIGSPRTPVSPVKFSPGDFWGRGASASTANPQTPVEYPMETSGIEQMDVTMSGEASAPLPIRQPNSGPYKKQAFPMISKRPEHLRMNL", "procedure,_shortened": "as §1"}, "[8]": {"molecular_target": "T8, PLK2 (Homo sapiens, UniProt Q9NYY3)", "T8 construct": "purchased Reaction Biology Corp", "T8 sequence (Q9NYY3 whole entry)": "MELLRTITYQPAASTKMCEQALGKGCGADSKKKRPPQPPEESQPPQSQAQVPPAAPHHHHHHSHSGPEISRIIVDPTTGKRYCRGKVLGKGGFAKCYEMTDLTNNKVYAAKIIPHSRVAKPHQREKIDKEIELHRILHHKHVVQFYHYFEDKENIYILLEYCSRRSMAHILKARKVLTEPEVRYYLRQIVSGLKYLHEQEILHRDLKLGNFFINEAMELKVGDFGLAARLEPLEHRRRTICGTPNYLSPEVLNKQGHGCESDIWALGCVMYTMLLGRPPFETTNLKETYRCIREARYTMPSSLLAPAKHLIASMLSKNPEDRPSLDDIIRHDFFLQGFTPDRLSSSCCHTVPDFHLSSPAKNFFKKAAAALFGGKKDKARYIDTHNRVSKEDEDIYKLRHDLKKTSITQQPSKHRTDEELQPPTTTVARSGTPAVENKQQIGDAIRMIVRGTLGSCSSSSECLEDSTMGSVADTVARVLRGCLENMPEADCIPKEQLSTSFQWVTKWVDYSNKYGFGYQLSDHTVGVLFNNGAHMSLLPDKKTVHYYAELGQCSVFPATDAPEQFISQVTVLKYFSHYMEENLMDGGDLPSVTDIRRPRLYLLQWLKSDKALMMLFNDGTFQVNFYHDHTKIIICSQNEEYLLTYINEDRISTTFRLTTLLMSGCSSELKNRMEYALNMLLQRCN", "procedure,_shortened": "as §1"}, "[9]": {"molecular_target": "T9, RSK1 (Homo sapiens, UniProt Q15418)", "T9 construct": "purchased Reaction Biology Corp", "T9 sequence (Q15418 whole entry)": "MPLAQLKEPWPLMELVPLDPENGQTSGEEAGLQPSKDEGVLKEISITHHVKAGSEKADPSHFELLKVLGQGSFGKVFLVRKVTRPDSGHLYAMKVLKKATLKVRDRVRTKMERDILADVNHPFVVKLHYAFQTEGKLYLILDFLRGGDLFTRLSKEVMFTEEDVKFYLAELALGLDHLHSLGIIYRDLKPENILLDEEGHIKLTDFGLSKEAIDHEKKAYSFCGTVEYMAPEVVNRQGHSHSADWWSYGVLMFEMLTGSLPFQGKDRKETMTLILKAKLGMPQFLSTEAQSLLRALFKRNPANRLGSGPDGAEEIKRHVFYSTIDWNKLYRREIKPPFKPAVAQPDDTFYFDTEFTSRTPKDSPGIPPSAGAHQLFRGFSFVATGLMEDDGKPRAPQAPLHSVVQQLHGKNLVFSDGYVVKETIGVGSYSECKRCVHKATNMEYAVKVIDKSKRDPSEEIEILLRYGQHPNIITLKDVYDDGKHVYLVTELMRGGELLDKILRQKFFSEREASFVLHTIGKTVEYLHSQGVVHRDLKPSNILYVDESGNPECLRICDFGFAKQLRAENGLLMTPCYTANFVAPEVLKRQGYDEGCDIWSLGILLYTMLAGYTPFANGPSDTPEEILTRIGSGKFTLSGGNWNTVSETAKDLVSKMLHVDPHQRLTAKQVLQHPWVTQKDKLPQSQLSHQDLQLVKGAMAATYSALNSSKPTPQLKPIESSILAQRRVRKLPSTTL", "procedure,_shortened": "as §1"}, "[10]": {"molecular_target": "T10, VRK1 (Homo sapiens, UniProt Q99986)", "T10 construct": "purchased Reaction Biology Corp", "T10 sequence (Q99986 1-396)": "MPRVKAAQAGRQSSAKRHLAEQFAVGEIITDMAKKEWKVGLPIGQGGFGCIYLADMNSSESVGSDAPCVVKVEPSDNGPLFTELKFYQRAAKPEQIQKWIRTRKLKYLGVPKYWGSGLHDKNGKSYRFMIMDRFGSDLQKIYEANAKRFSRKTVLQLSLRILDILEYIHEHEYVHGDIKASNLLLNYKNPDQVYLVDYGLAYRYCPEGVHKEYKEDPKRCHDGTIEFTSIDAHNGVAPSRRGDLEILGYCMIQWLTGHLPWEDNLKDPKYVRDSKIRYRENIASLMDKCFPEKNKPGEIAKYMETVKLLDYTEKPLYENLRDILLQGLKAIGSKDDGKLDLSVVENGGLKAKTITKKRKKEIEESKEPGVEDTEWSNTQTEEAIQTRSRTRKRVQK", "procedure,_shortened": "as §1"}, "[11]": {"conditions": "read-out: % Enzyme Activity (relative to DMSO controls) Run 1"}, "[12]": {"conditions": "read-out: % Enzyme Activity (relative to DMSO controls) Run 2"}}, "note": "Where two headings read alike, the source gives them in different places."}
{"smiles": "C=CC(=O)Nc1cccc(Nc2nc(Nc3ccc(OCCOC)c(F)c3)ncc2F)c1", "note": "[Compound 2]", "values": [{"measurement": "inhibition at 3 µM", "setting": "[1]", "result": -2.26, "unit": "%"}, {"measurement": "remaining activity at 3 µM", "setting": "[1]; [11]", "result": 102, "unit": "%"}, {"measurement": "remaining activity at 3 µM", "setting": "[1]; [12]", "result": 102, "unit": "%"}, {"measurement": "inhibition at 3 µM", "setting": "[2]", "result": 2.36, "unit": "%"}, {"measurement": "remaining activity at 3 µM", "setting": "[2]; [11]", "result": 98.1, "unit": "%"}, {"measurement": "remaining activity at 3 µM", "setting": "[2]; [12]", "result": 97.2, "unit": "%"}, {"measurement": "inhibition at 3 µM", "setting": "[3]", "result": 15, "unit": "%"}, {"measurement": "remaining activity at 3 µM", "setting": "[3]; [11]", "result": 84.2, "unit": "%"}, {"measurement": "remaining activity at 3 µM", "setting": "[3]; [12]", "result": 85.8, "unit": "%"}, {"measurement": "inhibition at 3 µM", "setting": "[4]", "result": 37.9, "unit": "%"}, {"measurement": "remaining activity at 3 µM", "setting": "[4]; [11]", "result": 60, "unit": "%"}, {"measurement": "remaining activity at 3 µM", "setting": "[4]; [12]", "result": 64.1, "unit": "%"}, {"measurement": "inhibition at 3 µM", "setting": "[5]", "result": -12.8, "unit": "%"}, {"measurement": "remaining activity at 3 µM", "setting": "[5]; [11]", "result": 110, "unit": "%"}, {"measurement": "remaining activity at 3 µM", "setting": "[5]; [12]", "result": 116, "unit": "%"}, {"measurement": "inhibition at 3 µM", "setting": "[6]", "result": -10.9, "unit": "%"}, {"measurement": "remaining activity at 3 µM", "setting": "[6]; [11]", "result": 108, "unit": "%"}, {"measurement": "remaining activity at 3 µM", "setting": "[6]; [12]", "result": 114, "unit": "%"}, {"measurement": "inhibition at 3 µM", "setting": "[7]", "result": 16.5, "unit": "%"}, {"measurement": "remaining activity at 3 µM", "setting": "[7]; [11]", "result": 85.9, "unit": "%"}, {"measurement": "remaining activity at 3 µM", "setting": "[7]; [12]", "result": 81, "unit": "%"}, {"measurement": "inhibition at 3 µM", "setting": "[8]", "result": 13.3, "unit": "%"}, {"measurement": "remaining activity at 3 µM", "setting": "[8]; [11]", "result": 86.6, "unit": "%"}, {"measurement": "remaining activity at 3 µM", "setting": "[8]; [12]", "result": 86.7, "unit": "%"}, {"measurement": "inhibition at 3 µM", "setting": "[9]", "result": 27.1, "unit": "%"}, {"measurement": "remaining activity at 3 µM", "setting": "[9]; [11]", "result": 73.3, "unit": "%"}, {"measurement": "remaining activity at 3 µM", "setting": "[9]; [12]", "result": 72.5, "unit": "%"}, {"measurement": "inhibition at 3 µM", "setting": "[10]", "result": 12.9, "unit": "%"}, {"measurement": "remaining activity at 3 µM", "setting": "[10]; [11]", "result": 84.3, "unit": "%"}, {"measurement": "remaining activity at 3 µM", "setting": "[10]; [12]", "result": 89.9, "unit": "%"}]}
